Reference: paper PMC10343501 (Molecules, 2023)

Legend:
Format in all cases: cell-based
Details in all cases: read-out: % inhibition at 100 nM
hERG potassium channel [1] = molecular target: T1, hERG potassium channel (Homo sapiens, UniProt Q12809); test: whole-cell patch clamp, HEK-293 cells, […] inhibition at […] (RT), […] (PT)
T1 construct: gene KCNH2

hERG potassium channel [2] = molecular target: T2, hERG potassium channel (Homo sapiens, UniProt Q12809, S624A); test: whole-cell patch clamp, transfected HEK-293 cells, […], RT
T2 construct: gene KCNH2

hERG potassium channel [3] = molecular target: T3, hERG potassium channel (Homo sapiens, UniProt Q12809, Y652A); test: as above
T3 construct: gene KCNH2
T3 sequence (Q12809 whole entry Y652A): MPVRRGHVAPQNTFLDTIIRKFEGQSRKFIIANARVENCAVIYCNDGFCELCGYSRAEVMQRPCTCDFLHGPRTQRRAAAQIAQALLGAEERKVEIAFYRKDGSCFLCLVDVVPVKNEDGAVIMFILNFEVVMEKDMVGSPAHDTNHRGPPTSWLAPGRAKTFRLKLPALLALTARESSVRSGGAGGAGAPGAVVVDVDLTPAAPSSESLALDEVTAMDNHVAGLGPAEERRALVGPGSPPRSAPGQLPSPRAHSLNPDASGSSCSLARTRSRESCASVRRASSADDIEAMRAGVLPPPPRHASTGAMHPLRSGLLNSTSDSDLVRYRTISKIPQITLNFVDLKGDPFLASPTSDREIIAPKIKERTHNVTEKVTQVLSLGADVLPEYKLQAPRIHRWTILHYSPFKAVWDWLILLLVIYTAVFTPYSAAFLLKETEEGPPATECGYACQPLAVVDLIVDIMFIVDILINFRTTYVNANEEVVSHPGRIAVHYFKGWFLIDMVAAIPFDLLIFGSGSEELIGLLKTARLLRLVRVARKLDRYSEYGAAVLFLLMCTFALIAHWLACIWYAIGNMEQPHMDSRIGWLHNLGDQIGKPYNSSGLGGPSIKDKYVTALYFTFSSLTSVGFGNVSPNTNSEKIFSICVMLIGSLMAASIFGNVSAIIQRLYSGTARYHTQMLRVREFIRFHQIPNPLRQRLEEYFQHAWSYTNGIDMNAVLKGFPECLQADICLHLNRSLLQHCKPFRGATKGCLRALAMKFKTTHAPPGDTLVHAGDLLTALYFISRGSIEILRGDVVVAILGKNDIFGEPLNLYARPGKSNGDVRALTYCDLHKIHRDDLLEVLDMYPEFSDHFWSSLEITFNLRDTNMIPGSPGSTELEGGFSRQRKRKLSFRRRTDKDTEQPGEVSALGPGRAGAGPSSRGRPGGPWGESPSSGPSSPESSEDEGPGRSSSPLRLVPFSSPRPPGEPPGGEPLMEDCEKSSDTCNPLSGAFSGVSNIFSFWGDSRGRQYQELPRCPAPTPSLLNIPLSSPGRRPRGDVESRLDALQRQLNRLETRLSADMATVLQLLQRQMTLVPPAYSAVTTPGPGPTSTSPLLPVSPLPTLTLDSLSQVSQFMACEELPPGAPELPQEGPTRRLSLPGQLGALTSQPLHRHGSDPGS

T2 sequence (Q12809 whole entry S624A): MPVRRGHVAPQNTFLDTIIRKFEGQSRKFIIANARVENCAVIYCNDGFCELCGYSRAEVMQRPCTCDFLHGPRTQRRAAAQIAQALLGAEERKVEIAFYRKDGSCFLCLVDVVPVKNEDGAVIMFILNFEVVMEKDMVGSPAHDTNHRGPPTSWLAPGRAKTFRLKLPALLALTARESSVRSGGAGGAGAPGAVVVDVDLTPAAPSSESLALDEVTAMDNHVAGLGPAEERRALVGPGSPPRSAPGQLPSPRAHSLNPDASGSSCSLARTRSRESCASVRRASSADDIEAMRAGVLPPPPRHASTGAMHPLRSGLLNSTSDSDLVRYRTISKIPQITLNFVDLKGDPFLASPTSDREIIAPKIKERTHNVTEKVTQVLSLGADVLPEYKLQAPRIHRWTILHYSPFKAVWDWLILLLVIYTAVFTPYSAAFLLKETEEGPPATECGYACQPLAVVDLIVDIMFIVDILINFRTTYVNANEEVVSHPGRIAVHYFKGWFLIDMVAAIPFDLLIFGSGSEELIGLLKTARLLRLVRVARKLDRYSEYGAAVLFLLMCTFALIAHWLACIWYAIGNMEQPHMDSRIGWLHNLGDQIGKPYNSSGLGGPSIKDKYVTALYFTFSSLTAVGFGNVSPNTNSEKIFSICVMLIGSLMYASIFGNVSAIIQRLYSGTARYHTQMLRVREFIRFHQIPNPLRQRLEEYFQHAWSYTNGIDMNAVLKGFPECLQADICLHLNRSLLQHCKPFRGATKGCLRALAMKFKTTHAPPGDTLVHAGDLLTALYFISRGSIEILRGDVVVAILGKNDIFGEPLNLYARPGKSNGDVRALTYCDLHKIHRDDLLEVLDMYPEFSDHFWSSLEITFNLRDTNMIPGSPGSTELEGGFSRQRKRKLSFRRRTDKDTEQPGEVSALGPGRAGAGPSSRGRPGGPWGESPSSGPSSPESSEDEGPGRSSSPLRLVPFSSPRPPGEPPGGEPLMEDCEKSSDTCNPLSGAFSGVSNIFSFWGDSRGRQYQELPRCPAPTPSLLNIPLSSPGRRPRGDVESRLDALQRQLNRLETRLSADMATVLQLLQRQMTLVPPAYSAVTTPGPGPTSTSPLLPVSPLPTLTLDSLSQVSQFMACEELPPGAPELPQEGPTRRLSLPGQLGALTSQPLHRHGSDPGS
T1 sequence (Q12809 whole entry): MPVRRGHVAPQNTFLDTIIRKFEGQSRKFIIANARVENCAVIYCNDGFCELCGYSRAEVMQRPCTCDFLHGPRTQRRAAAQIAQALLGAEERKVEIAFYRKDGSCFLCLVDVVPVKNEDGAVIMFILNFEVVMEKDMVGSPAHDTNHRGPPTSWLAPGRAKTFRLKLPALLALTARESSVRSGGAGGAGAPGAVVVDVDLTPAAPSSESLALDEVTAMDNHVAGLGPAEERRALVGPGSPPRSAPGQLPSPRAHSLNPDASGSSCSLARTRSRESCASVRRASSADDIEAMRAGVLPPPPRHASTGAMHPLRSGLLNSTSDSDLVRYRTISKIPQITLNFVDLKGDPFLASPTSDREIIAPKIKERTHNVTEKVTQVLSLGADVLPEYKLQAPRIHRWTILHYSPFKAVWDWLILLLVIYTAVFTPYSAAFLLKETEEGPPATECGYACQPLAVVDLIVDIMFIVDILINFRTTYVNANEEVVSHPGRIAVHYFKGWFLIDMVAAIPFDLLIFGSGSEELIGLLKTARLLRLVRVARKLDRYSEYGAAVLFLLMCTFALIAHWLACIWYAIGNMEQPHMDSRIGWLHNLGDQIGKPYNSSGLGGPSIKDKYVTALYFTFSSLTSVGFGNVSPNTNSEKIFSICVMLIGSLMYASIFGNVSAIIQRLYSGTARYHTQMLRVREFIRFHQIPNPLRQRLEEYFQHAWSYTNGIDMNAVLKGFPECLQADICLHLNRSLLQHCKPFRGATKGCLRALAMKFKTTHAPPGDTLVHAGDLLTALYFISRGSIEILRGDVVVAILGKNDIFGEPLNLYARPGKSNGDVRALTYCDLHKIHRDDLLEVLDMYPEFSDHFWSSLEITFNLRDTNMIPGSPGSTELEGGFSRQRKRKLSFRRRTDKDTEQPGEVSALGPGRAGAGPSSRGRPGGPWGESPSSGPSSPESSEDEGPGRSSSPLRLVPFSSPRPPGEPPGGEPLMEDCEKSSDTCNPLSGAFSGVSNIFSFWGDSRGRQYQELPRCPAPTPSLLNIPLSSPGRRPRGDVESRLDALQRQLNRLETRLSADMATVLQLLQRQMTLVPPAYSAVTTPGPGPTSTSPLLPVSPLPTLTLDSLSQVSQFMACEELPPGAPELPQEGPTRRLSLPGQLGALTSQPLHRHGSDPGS

Question: With COc1cc(N)c(Cl)cc1C(=O)NC1CCN(CCCOc2ccc(F)cc2)CC1OC (stereo not drawn) [cisapride] as the molecule, how does the inhibition at 0.1 µM (hERG potassium channel [1]) read?
Answer: Its inhibition at 0.1 µM is 75.9%.

Question: And the inhibition at 0.1 µM (hERG potassium channel [2])?
Answer: Its inhibition at 0.1 µM is 44%.

Question: And the inhibition at 0.1 µM (hERG potassium channel [3])?
Answer: Its inhibition at 0.1 µM is 33.9%.
